Values quoted from earlier work in patent US6921530B1, “Low dose IL-2 for potentiation of immunity” (Cornell Research Foundation, Inc., priority 1999, dated 2005).
Values joined by “and” are separate entries in the source; they are usually repeats but may differ in a detail not shown here. Equal entries are not always repeated.

Tested on: HCV
Conditions: cited from earlier work

In the case of Interferon-α [IFN-α], the “sustained response, % of patients” value (3×10^6 units s.c. three times a week over one year, monotherapy) is given as 35% and 28-43% and the “initial delay before decline of plasma HCV viral load” value (daily IFN therapy) is given as 9 h.
